Tested on: red blood cells
Settings: riboflavin and visible light, FIG. 4
Text: Red blood cells were suspended in AS3 during a pathogen reduction procedure using riboflavin and visible light. […] AS3 contains sodium chloride, dextrose, adenine, sodium phosphate, sodium citrate and citric acid.

Cc1cc2nc3c(=O)[nH]c(=O)nc-3n(CC(O)C(O)C(O)CO)c2cc1C (stereo not shown) [riboflavin, 7,8-dimethyl-10-ribityl isoalloxazine]
% hemolysis of red blood cells: less than 2%

— patent US8679736B2, “Removal of adenine during a pathogen reduction process in whole blood or red blood cells by dilution” (Terumo BCT Biotechnologies, LLC, priority 2002, dated 2014)
